Among the data in PubChem BioAssay (NCI) are TGI and GI50 values, retold here.

What all share (test): NCI tumour cell line growth inhibition, 48 h
In test [1] the test system is M19-MEL melanoma.
The test system of test [2] is DMS 273 small cell lung.
Test [3] has as its system DMS 114 small cell lung.
Test [4] relates to DLD-1 colon.
The subject of test [5] is BT-549 breast.
Test [6] has as its system MDA-N.
Test [7] deals with HOP-18 NSCLC.

Where “and” joins values, the source holds several entries; their conditions need not be identical. Equal values may be shown once.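 A five-concentration, 48-hour dose response in 96-well plates underlies each endpoint, interpolated linearly between surrounding concentrations. GI50 is the concentration that inhibits growth by half. TGI marks complete inhibition of growth.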 A value given as a limit tells only on which side of the number the result lay.

As to `COc1cccc(C=NC23CC4CC(CC(C4)C2)C3)c1`, the TGI in test [1] and in test [2] was more than 100 µM in each case.

For the molecule `Cc1cc(O)c2c(c1)OC1(C)CCC3C(C)(C)CCCC34COC2C14` (stereo not given), the TGI in test [2] came out at 27.1 µM; in test [3] it was 27.1 µM; in test [4], 36.8 µM.

Consider `COC(=O)N[C@@H](C)CNc1nccc(-c2cn(C(C)C)nc2-c2cc(Cl)cc(NS(C)(=O)=O)c2F)n1`, for which, in test [5], the GI50 was more than 100 µM and the TGI is more than 100 µM.

For the molecule `CCCCC[C@H]1C/C=C2/C(=O)C=C[C@@H]2C/C=C\CCCC(=O)O1`, in test [5], the GI50 is 0.147 µM and the TGI worked out at 0.468 µM.

For `CC(C)C(Br)C(=O)NCC(=O)O` (stereo not given), the TGI in test [5] and in test [6] was more than 100 µM throughout.

`CC(=O)c1nc(-c2ccc(C[C@@H](CNC(=O)CN(C)C)NC(=O)c3ccc(OC(C)C)c(Cl)c3)cc2)cn1C`: in test [5], the GI50 was 0.285 µM and the TGI amounted to 19.5 µM.

Take `O=C(C#Cc1ccccc1)NC/C=C/c1ccccc1`: the TGI in test [1], in test [3], in test [7] and in test [4] was more than 100 µM each time.

For the molecule `S=C(Nc1ccc(-c2nc3ccccc3s2)cc1)Nc1ccc(-c2nc3ccccc3s2)cc1`, in test [5], the GI50 is 9.36 µM and the TGI came to 40.1 µM.

Take `COc1c(OC2OC(C)C(O)C(O)C2O)c(OC)c2oc(-c3ccc(O)cc3)cc(=O)c2c1O` (stereo not given): in test [5], the GI50 is 25.4 µM and the TGI amounted to 72.6 µM.

On to `Cc1cc(C)c(-c2c(O)c(Br)c(-c3c(C)cc(C)c(Br)c3C)c(O)c2Br)c(C)c1Br`, for which, in test [5], the GI50 was 2.25 µM and the TGI is 10.5 µM.

On to `O=C(Cc1nc2ccccc2s1)C(=O)Nc1cccc(C(F)(F)F)c1`, for which the TGI in test [1], in test [2], in test [3], in test [7] and in test [4] was more than 100 µM in each case.

`CCOC(=O)/C=C/c1ccc([N+](=O)[O-])o1`: in test [5], the GI50 is 3.43 µM and the TGI was 11.4 µM.

With `CCCC(=O)Nc1cc(/C=C/C(=O)N2C[C@@H]3C[C@]34C2=CC(=O)c2[nH]cc(C)c24)n(C)c1`, in test [5], the GI50 is 0.233 µM; the TGI is 1.96 µM and 0.749 µM. Further, the TGI in test [6] came to 0.879 µM.

With `CCOC(=O)c1sc(NC(=O)COc2ccc(/C=C3\CCc4cc(OC)ccc4C3=O)cc2)nc1C`, in test [5], the GI50 was 1.4 µM and the TGI turned out to be 17.7 µM.

With `C/C(=N\NC(=S)N1CCCC1)c1ccccn1`, in test [5], the GI50 is 0.018 µM and the TGI was found to be 14.9 µM.

Take `COc1ccc2c(c1)[n+](=O)c(/C=C/C(=O)c1cc(OC)c(OC)c(OC)c1)c(C)n2[O-]`: in test [5], the GI50 was 6.11 µM and the TGI stood at 65 µM.

With `COc1ccc(/C=C(\C#N)c2cc(OC)c(OC)c(OC)c2)cc1`, in test [5], the GI50 was 0.0282 µM and the TGI came to 0.0883 µM.

As for `CSCc1ncc(-c2ccc(C(F)(F)F)cc2)c(NC2CCCCCC2)n1`, in test [5], the GI50 is more than 10 µM and the TGI is more than 10 µM.

For the molecule `COc1ccc(N=c2nc3sc4cc(Cl)ccc4n3c(N)c2C#N)cc1`, in test [5], the GI50 is 5.17 µM and the TGI is 98 µM.

In the case of `N.N.N.N.O=S([O-])[O-].[Co+3].[N-]=[N+]=[N-]`, in test [2], the GI50 is more than 100 µM and the TGI is more than 100 µM. Also, in test [4], the GI50 was more than 100 µM and the TGI was more than 100 µM.

Take `CN(C)CCN=c1nc2c(c(N)n1-c1ccccc1)c(=S)n(-c1ccccc1)c(=S)n2-c1ccccc1`: in test [5], the GI50 was 3.21 µM and the TGI was determined as 13.3 µM.

For the molecule `CCOC1=C/C(=N\Nc2ccc([N+](=O)[O-])cc2)CCC1`, the TGI in test [5] worked out at 43.8 µM.

Turning to `O=C(CC1(O)CCCCC1)OC1CCCC1`, the TGI in test [5] and in test [6] was more than 100 µM in each case.

Consider `Cc1nc(C(=O)OCc2ccccc2)cc(OCc2ccccc2)c1C`, for which, in test [5], the GI50 is 17.9 µM and the TGI is 34.2 µM.

Regarding `CN1C2C=CC(=O)C1C(C#N)C2` (stereo not given), the GI50 in test [5] is 34.5 µM and 93.1 µM. For the same molecule, the TGI in test [5] and in test [6] was more than 100 µM throughout.

Take `O=C(OCC1=CC(=O)c2ccccc2C1=O)c1ccccc1`: in test [5], the GI50 is 13.8 µM and the TGI turned out to be 27 µM.

Take `COc1ccc(C2=NNC(c3sc(Cl)nc3Cl)C2)cc1` (stereo not given): in test [5], the GI50 was 2.89 µM and the TGI turned out to be 9.82 µM.

`Nc1ccccc1SC(/C=C/NNC1=NC(c2ccccc2)C(c2ccccc2)=NN1)c1ccccc1` (stereo not given): the TGI in test [1] was 25 µM; in test [2], 36.8 µM; in test [3] it was 30.1 µM; in test [4], 31.8 µM.

For `CCNC(=O)COc1ccc(Cl)c(C)c1`, the TGI in test [1], in test [2], in test [3], in test [7] and in test [4] was more than 100 µM in each case.

On to `COc1ccc2c(CN3CCCC[C@H]3O)cc3cc4c(cc3c2c1)OCO4`, for which, in test [5], the GI50 is 1.21 µM and the TGI amounted to 4.5 µM.

In the case of `Cc1cc(C)nc(NC(=O)COc2ccc(Cl)cc2)c1`, the TGI in test [5] and in test [6] was more than 100 µM in each case.

Consider `Cc1nc(Nc2ccc(Cl)cc2)sc1C(=O)Nc1cccc2c(=O)[nH][nH]c(=O)c12`, for which the TGI in test [1] was 84.4 µM; in test [2], more than 100 µM; in test [3], 61.9 µM; in test [4] it was 86.4 µM.

For `CN(Cc1cnc2nc(N)nc(N)c2n1)c1c(Cl)cc(C(=O)NC(CCC(=O)O)C(=O)O)cc1Cl` (stereo not given), in test [5], the GI50 is 1.4 µM and the TGI was more than 100 µM.

Consider `CC(=O)/C(=N\N=C(N)N)c1ccccc1`, for which the TGI in test [5] and in test [6] was more than 100 µM in each case.

Take `C=C(CN1CCN(c2ccccn2)CC1)c1ccc(C(=O)Nc2ccccc2N)cc1`: in test [5], the GI50 was 3.95 µM and the TGI is 37.4 µM.

Consider `OC(Cc1cccc2ccccc12)CN1CCC(c2ccccc2)CC1` (stereo not given), for which the TGI turned out to be 31.3 µM in test [5] and 27.3 µM in test [6].

With `COc1ccc(C(=O)Cn2c(C(=O)c3ccc(Cl)cc3)nc(-c3ccccc3)c2-c2ccccc2)cc1`, in test [5], the GI50 was more than 100 µM and the TGI was more than 100 µM.

Turning to `BrCc1ccc2ccc3ccc(CBr)nc3c2n1`, the TGI in test [1] turned out to be 14.1 µM; in test [2] it was 3.34 µM; in test [3], 15.4 µM; in test [7] it was 5.48 µM; in test [6], 12.7 µM.

For the molecule `CCCCS(=O)(=O)c1cc(Nc2ccc(O)c3c2C(=O)c2ccccc2C3=O)ccc1C`, in test [5], the GI50 is more than 100 µM and the TGI is more than 100 µM.

In the case of `C=C1C(=O)O[C@@H]2C[C@@H](C)[C@@H]3C=CC(=O)[C@@]3(C)[C@@H](OC(=O)CCCC(=O)O[C@H]3[C@@H]4C(=C)C(=O)O[C@@H]4C[C@@H](C)[C@@H]4C=CC(=O)[C@]43C)[C@H]12`, the TGI amounted to 0.07 µM in test [5] and 0.0431 µM in test [6].

For the molecule `COc1ccc(CN2c3ccccc3Sc3ccccc32)cc1O`, in test [5], the GI50 was 0.773 µM and the TGI amounted to 17.1 µM.

On to `OC[C@H]1N[C@H](CO)[C@@H](O)[C@H]1O`, for which the TGI in test [5] was more than 100 µM.

Consider `CC(C)(O)c1cc(Nc2cc(Oc3cn(C4CC4)nc3C3CCOCC3)ccn2)ccn1`, for which, in test [5], the GI50 was 56.7 µM and the TGI was more than 100 µM.

With `COc1cc(C=NCC(=O)CSC(c2ccccc2)c2ccccc2)ccc1O`, in test [5], the GI50 is 14 µM and the TGI was 31.6 µM.

Regarding `CCNc1ccc2c(c1)C(=O)N(OS(C)(=O)=O)C2=O`, the TGI in test [5] and in test [6] was more than 100 µM throughout.

Turning to `O=C1C=C(NCCc2ccccc2)c2ccccc2C1=O`, the TGI turned out to be 0.927 µM in test [1]; 7.55 µM in test [2]; 3.77 µM in test [5]; 5.81 µM in test [3]; 3 µM in test [7]; 21.9 µM in test [4]. Further, the TGI in test [6] is 3.39 µM.

Turning to `O=C1c2ccccc2-c2c1c1ccccc1c(=O)n2CCNCCNCCNCCNCCn1c2c(c3ccccc3c1=O)C(=O)c1ccccc1-2`, in test [5], the GI50 is 0.334 µM and the TGI is 1.62 µM.

As for `O=C(O)CCN1C(=S)CSC1=S`, the TGI in test [5] and in test [6] was more than 100 µM in each case.

On to `CC(C)(C)OC(=O)NCCCCCCCCCCCCn1c2c(c3ccccc3c1=O)C(=O)c1ccccc1-2`, for which, in test [5], the GI50 was 38.5 µM and the TGI was more than 100 µM.

`COC(=O)c1c(C(=O)O)c(-c2ccccc2)c(-c2ccccc2)c(-c2ccccc2)c1-c1ccccc1`: in test [5], the GI50 is more than 100 µM and the TGI was more than 100 µM.

In the case of `CN(CCOc1ccc(NS(C)(=O)=O)cc1)CCc1ccc(NS(C)(=O)=O)cc1`, in test [5], the GI50 is more than 100 µM and the TGI is more than 100 µM.
